Like-named read-outs stand apart in the source and are kept apart here.
Assays:
Assay type in all cases: physicochemical
[1] = Hygroscopicity analysis (weight gain, Chinese Pharmacopoeia 2020 guideline 9103); conditions: 25° C.±1° C., 24 hours; for Weight Gain: constant humidity
Method: 1) a dry glass weighing bottle with a plug (with an outer diameter of 50 mm and a height of 15 mm) was taken and placed in a proper constant-temperature dryer (the lower part was placed with ammonium chloride or ammonium sulfate saturated solution) at 25° C.±1° C. one day before the test; and the weight of the weighing bottle was precisely measured (m 1).
2) a proper amount of the test sample was taken, tiled in the weighing bottle, wherein the thickness of the test sample was about 1 mm, and the weight of the test sample was precisely measured (m 2). 3) the weighing bottle was opened, and placed with its bottle cap under the constant temperature and humidity conditions for 24 hours.
4) the bottle cap was covered well and the weight of […] was precisely measured (m 3).
According to 9103 guideline principle on drug hygroscopicity test in four part of Chinese Pharmacopoeia 2020 edition, the description of hygroscopicity characteristics and the definition of hygroscopicity weight gain are as follows:
Deliquescence: enough water is absorb to form liquid.
Extremely hygroscopic: the weight gain due to hygroscopicity is not less than 15%.
Hygroscopic: the weight gain due to hygroscopicity is less than 15% but not less than 2%.
Slightly hygroscopic: the weight gain due to hygroscopicity is less than 2% but not less than 0.2%.
No or almost no hygroscopicity: the weight gain due to hygroscopicity is less than 0.2%.

[2] = Oil-water distribution coefficient log P (n-octanol-water) by HPLC retention time; conditions: HPLC retention time against standards of known log P
Description: The standard substance having known log P (n-octanol-water) was used, the log P (n-octanol-water) of the substance to be tested was detected by HPLC. The principle is based on the fact that the retention time of chemical substances in a long hydrocarbon chain chromatographic column such as C18 column is related to their hydrocarbon-water distribution coefficient. Hydrophilic substances are eluted first, lipophilic substances are eluted later, and the oil-water distribution coefficient and the retention time are in a linear relationship, and the equation is as follows: [formula] [formula] log P: oil-water partition coefficient of samples (n-octanol-water); T0: dead time (measured by uracil here); Tn: retention time of samples by HPLC; according to the above formula, a linear relationship formula can be established by detecting the retention time of the standard substance and the known log P (n-octanol-water). The theoretical value of log P is used as the ordinate, the log K value is used as the abscissa for drawing, the values of a and b are obtained through calculation, and then the retention time (namely the log K value in the table) of samples to be detected is substituted into the equation to calculate the log P (n-octanol-water) value of samples.

[3] = Solubility analysis in water and media of different pH, HPLC; conditions: for solubility thermodynamic: thermodynamic from solid, read-out: Concentration
Method: The excessive test sample was put into a dissolution instrument cup, added with water and an appropriate amount of water-soluble medium with different pH values (pH=1.2, 2.2, 4.0, 4.5, 5.5, 6.8), stirred at 37° C.±1° C. (rotation speed: 100 r/min) for dissolution (more than 6 hours) to form a […] solution, the saturated solution was filtered, the filtrate was diluted with a mobile phase by corresponding times, the concentration was measured by HPLC method, and the solubility was calculated.

[4] = Fluidity detection: angle of repose by fixed cone bottom method; conditions: average of three, <30° fluidity better, >40° poor
Description: Measurement of angle of repose: a fixed cone bottom method was used, the funnel was fixed on a horizontal coordinate paper at a proper height, so that the distance from a lower opening of the funnel to the coordinate paper was H, the powder was carefully poured into the funnel until the tip of a cone formed below the funnel contacted an outlet of the funnel, the radius r of the cone can be measured by the coordinate paper, and measured three times continuously, and the average value was taken as the result. The angle of repose a was calculated as follows: […]
Judgment standard: when the angle of repose is <30°, the fluidity is better. When the angle of repose is >40°, the fluidity is poor.

[5] = Water for injection, 37° C.±1° C.

## Cc1cncc(CN2CCC(=C3c4ccccc4CC(=O)c4sccc43)CC2)c1.O=C(O)/C=C/C(=O)O [Crystalline form A, 4-[1-[(5-methylpyridin-3-yl)methyl]piperidyl-4-ylidene]-4,9-dihydro-10H-benzo[4,5]cycloheptyl[1,2-b]thiophen-10-one fumarate]
[1]
  Hygroscopicity: Slightly hygroscopic (the weight gain due to hygroscopicity is less than 2% but not less than 0.2%)
  Weight Gain: 0.3%
[2]
  log P (n-octanol-water): 2.8
[3]; [5]
  Concentration: 1790 µg/mL
  Equilibrium Solubility: 448.75 mg/250 ml
[3]; pH = 1.2, 37° C.±1° C.
  Concentration: 26680 µg/mL
  Equilibrium Solubility: 6669.86 mg/250 ml
[3]; pH = 2.2, 37° C.±1° C.
  Concentration: 3000 µg/mL
  Equilibrium Solubility: 751.00 mg/250 ml
[3]; pH = 4.0, 37° C.±1° C.
  Concentration: 2290 µg/mL
  Equilibrium Solubility: 571.88 mg/250 ml
[3]; pH = 4.5, 37° C.±1° C.
  Concentration: 2990 µg/mL
  Equilibrium Solubility: 747.72 mg/250 ml
[3]; pH = 5.5, 37° C.±1° C.
  Concentration: 340 µg/mL
  Equilibrium Solubility: 84.93 mg/250 ml
[3]; pH = 6.8, 37° C.±1° C.
  Equilibrium Solubility: 3.39 mg/250 ml
[4]
  Angle of Repose: 47°

## Cc1cncc(CN2CCC(=C3c4ccccc4CC(=O)c4sccc43)CC2)c1.O=C(O)/C=C/C(=O)O [Crystalline form B, 4-[1-[(5-methylpyridin-3-yl)methyl]piperidyl-4-ylidene]-4,9-dihydro-10H-benzo[4,5]cycloheptyl[1,2-b]thiophen-10-one fumarate]
[1]
  Hygroscopicity: Slightly hygroscopic (the weight gain due to hygroscopicity is less than 2% but not less than 0.2%)
  Weight Gain: 0.2%
[2]
  chromatographic logP: 2.9
[3]; [5]
  Concentration: 1220 µg/mL
  Equilibrium Solubility: 305.45 mg/250 ml
[3]; pH = 1.2, 37° C.±1° C.
  Concentration: 29420 µg/mL
  Equilibrium Solubility: 7355.56 mg/250 ml
[3]; pH = 2.2, 37° C.±1° C.
  Concentration: 2640 µg/mL
  Equilibrium Solubility: 659.74 mg/250 ml
[3]; pH = 4.0, 37° C.±1° C.
  Concentration: 1410 µg/mL
  Equilibrium Solubility: 352.76 mg/250 ml
[3]; pH = 4.5, 37° C.±1° C.
  Concentration: 1360 µg/mL
  Equilibrium Solubility: 339.48 mg/250 ml
[3]; pH = 5.5, 37° C.±1° C.
  Equilibrium Solubility: 44.97 mg/250 ml
[3]; pH = 6.8, 37° C.±1° C.
  Equilibrium Solubility: 2.56 mg/250 ml
[3]; water-soluble medium of pH 5.5, 37 °C, pH 5.5, aqueous buffer, pH = 5.5, 37° C.±1° C.
  solubility thermodynamic: 180 µg/mL
[3]; water-soluble medium of pH 6.8, 37 °C, pH 6.8, aqueous buffer, pH = 6.8, 37° C.±1° C.
  solubility thermodynamic: 10 µg/mL
[4]
  Angle of Repose: 50°

## Cc1cncc(CN2CCC(=C3c4ccccc4CC(=O)c4sccc43)CC2)c1.O=C(O)/C=C/C(=O)O [Crystalline form C, 4-[1-[(5-methylpyridin-3-yl)methyl]piperidyl-4-ylidene]-4,9-dihydro-10H-benzo[4,5]cycloheptyl[1,2-b]thiophen-10-one fumarate]
[1]
  Hygroscopicity: No or almost no hygroscopicity (the weight gain due to hygroscopicity is less than 0.2%)
  Weight Gain: 0.06%
[2]
  log P (n-octanol-water): 3.2
[3]; [5]
  Concentration: 2460 µg/mL
  Equilibrium Solubility: 616.34 mg/250 ml
[3]; medium with pH=6.8
  solubility according to the classification system of biopharmaceuticals: slightly superior to that of other crystal forms
[3]; pH = 1.2, 37° C.±1° C.
  Equilibrium Solubility: 4908.73 mg/250 ml
[3]; pH = 2.2, 37° C.±1° C.
  Equilibrium Solubility: 1013.35 mg/250 ml
[3]; pH = 4.0, 37° C.±1° C.
  Concentration: 2840 µg/mL
  Equilibrium Solubility: 710.90 mg/250 ml
[3]; pH = 4.5, 37° C.±1° C.
  Concentration: 3770 µg/mL
  Equilibrium Solubility: 942.80 mg/250 ml
[3]; pH = 5.5, 37° C.±1° C.
  Concentration: 310 µg/mL
  Equilibrium Solubility: 77.90 mg/250 ml
[3]; pH = 6.8, 37° C.±1° C.
  Concentration: 18 µg/mL
  Equilibrium Solubility: 4.40 mg/250 ml
[3]; water-soluble medium of pH 1.2, 37 °C, pH 1.2, simulated gastric fluid, pH = 1.2, 37° C.±1° C.
  solubility thermodynamic: 19600 µg/mL
[3]; water-soluble medium of pH 2.2, 37 °C, pH 2.2, aqueous buffer, pH = 2.2, 37° C.±1° C.
  solubility thermodynamic: 4050 µg/mL
[4]
  Angle of Repose: 28°
[4]; listed as crystalline form C
  Angle of Repose: less than 30 °

## Cc1cncc(CN2CCC(=C3c4ccccc4CC(=O)c4sccc43)CC2)c1.O=C(O)/C=C/C(=O)O [Mixed crystal, 4-[1-[(5-methylpyridin-3-yl)methyl]piperidyl-4-ylidene]-4,9-dihydro-10H-benzo[4,5]cycloheptyl[1,2-b]thiophen-10-one fumarate]
[1]
  Hygroscopicity: Slightly hygroscopic (the weight gain due to hygroscopicity is less than 2% but not less than 0.2%)
  Weight Gain: 0.4%
[2]
  log P (n-octanol-water): 2.7
[3]; [5]
  Concentration: 1980 µg/mL
  Equilibrium Solubility: 495.71 mg/250 ml
[3]; pH = 1.2, 37° C.±1° C.
  Concentration: 24470 µg/mL
  Equilibrium Solubility: 6117.84 mg/250 ml
[3]; pH = 2.2, 37° C.±1° C.
  Concentration: 3400 µg/mL
  Equilibrium Solubility: 849.73 mg/250 ml
[3]; pH = 4.0, 37° C.±1° C.
  Concentration: 2530 µg/mL
  Equilibrium Solubility: 633.71 mg/250 ml
[3]; pH = 4.5, 37° C.±1° C.
  Concentration: 3430 µg/mL
  Equilibrium Solubility: 856.32 mg/250 ml
[3]; pH = 5.5, 37° C.±1° C.
  Equilibrium Solubility: 76.85 mg/250 ml
[3]; pH = 6.8, 37° C.±1° C.
  Equilibrium Solubility: 3.61 mg/250 ml
[4]
  Angle of Repose: 49°

Source: patent US20260265234A1, “RUPATIFEN FUMARATE CRYSTAL FORM C, AND PREPARATION METHOD THEREFOR AND USE THEREOF” (FUJIAN MINDONG REJUENATION PHARMACEUTICAL CO., LTD., priority 2022, published 2026)
